Test results published in PMC12491383, “Organ and tumour dosimetry of ^177Lu-rhPSMA-10.1, a novel PSMA-targeted therapy: results from a Phase I trial” (European Journal of Nuclear Medicine and Molecular Imaging, 2025).

Assay: SPECT/CT image-based normal organ dosimetry (MIRD S-value methodology), Phase I BET-PSMA-121
Assay type: in vivo, human
Conditions: for Cumulative Absorbed Dose, Bone Marrow, % of dose limit / Cumulative Absorbed Dose, Kidney, % of dose limit / Cumulative Absorbed Dose, Salivary Glands, % of dose limit / Cumulative Absorbed Dose, Bone Marrow / Cumulative Absorbed Dose, Kidney / Cumulative Absorbed Dose, Salivary Glands: Cohort B; for Cumulative Absorbed Dose, Bone Marrow, % of dose limit: limit 2 Gy; for Cumulative Absorbed Dose, Salivary Glands, % of dose limit: limit 24 Gy
Source text: Figure 1 provides a schematic representation of the study. Enrolled patients were sequentially entered into one of the two cohorts. Cohort A received 5.55 GBq (150 mCi) of ^177Lu-rhPSMA-10.1 and Cohort B received 7.40 GBq (200 mCi) of ^177Lu-rhPSMA-10.1. Subsequent doses were delivered at 6-week intervals subject to individual tolerability and safety assessments. Each patient received between one and three cycles, with a maximum of three cycles of treatment being permitted in this initial part of the study. All administrations of ^177Lu-rhPSMA-10.1 were performed using intravenous injection under the supervision of the treating physician.
Multi-bed single-photon emission computed tomography (SPECT)/CT was conducted at 3-, 24-, 48- and 168-hours post-^177Lu-rhPSMA-10.1 administration in each treatment cycle for the estimation of organ and tumour absorbed doses in each patient. Prior to commencement of the study, each investigating site was required to complete a calibration of their dose calibrator and SPECT/CT system to ensure harmonised quantification of the imaging data. Quantitative reconstructions and all dosimetry analyses were carried out centrally by an independent dosimetry vendor (Radiopharmaceutical Imaging and Dosimetry LLC, Baltimore, MD).
The specific absorbed doses (Gy/GBq) in normal organs and tumours were determined using the Medical Internal Radiation Dose (MIRD) Committee S-value methodology. Individual patient organ masses, determined via CT delineation, were scaled to reflect deviations from reference phantom geometry. Cumulative organ absorbed doses (Gy) were calculated across all treatment cycles. Further details on dosimetry methodology are provided in the supplemental materials and have been reported in accordance with EANM guidance.
All patients underwent multi-bed single-photon emission computed tomography (SPECT)/CT at 3-, 24-, 48- and 168-hours post-^177Lu-rhPSMA-10.1 administration during each treatment cycle. The acquisition parameters are shown in Supplemental Table S1. All images were centrally reconstructed in 3D-RD-S using the iterative Ordered Subsets Expectation-Maximization (OSEM) algorithm with 40 iterations and 5 subsets. Attenuation, scatter, and the Collimator-Detector Response Function (CDRF) were modelled during the iterative process using a rotation-based projector. CT-based attenuation compensation was performed using the attenuation map generated from the CT image. Scatter was modelled using the Effective Source Scatter Estimation (ESSE) method.
Reconstructed images were converted to activity concentration units (Becquerel (Bq)/millilitre (mL)) using the calibration factor generated for each individual imaging system. Organ masses were individually determined using CT-based delineations and longitudinal SPECT activity statistics were based on these same delineations.
Time integrated activity coefficients (TIACs) were calculated for each target tissue. This was done by fitting each time–activity curve with an exponential function (mono, bi, or exponential uptake and washout) and integrating from time 0 to infinity. The simpler function was preferred provided the fit was adequate ([…]).
The TIAC in the bone marrow was derived from contours drawn around the marrow inside lumbar vertebrae L3–L5. Where lesions were present in the lumbar area, contours were drawn around either the femur heads, scapula or sternum depending on the anatomical coverage. The TIAC was then divided by the marrow mass in this region to give the TIAC concentration. The total bone marrow TIAC was be obtained as the product of this concentration and the standard International Commission on Radiological Protection (ICRP) bone marrow mass.
The S-value methodology was used to estimate the target tissue dose. […]

[1] = Patient 4, 3 cycles, 22.94 GBq cumulative
[2] = Patient 5, 3 cycles, 22.29 GBq cumulative
[3] = Patient 6, 3 cycles, 22.59 GBq cumulative
[4] = Patient 7, 3 cycles, 22.29 GBq cumulative
[5] = Patient 8, 3 cycles, 22.86 GBq cumulative
[6] = Patient 9, 3 cycles, 22.10 GBq cumulative
[7] = Patient 10, 3 cycles, 23.30 GBq cumulative
[8] = Patient 11, 1 cycle, 7.80 GBq cumulative
[9] = Patient 12, 1 cycle, 7.46 GBq cumulative
[10] = Patient 13, 3 cycles, 22.23 GBq cumulative

## CC(C)(C)[Si](F)(c1ccc(C(=O)NC[C@@H](NC(=O)CN2CCN(CC(=O)[O-])CCN(CC(=O)[O-])CCN(CC(=O)[O-])CC2)C(=O)N[C@H](CCCCNC(=O)CCC(=O)NCCC[C@@H](NC(=O)CC[C@H](NC(=O)N[C@@H](CCC(=O)O)C(=O)O)C(=O)O)C(=O)O)C(=O)O)cc1)C(C)(C)C.[177Lu+3] [^177Lu-rhPSMA-10.1]
[1]
  Cumulative Absorbed Dose, Bone Marrow, % of dose limit: 6.5%
  Cumulative Absorbed Dose, Salivary Glands, % of dose limit: 12%
Patient 4, 3 cycles, 22.94 GBq cumulative, limit 23 Gy
  Cumulative Absorbed Dose, Kidney, % of dose limit: 36%
[2]
  Cumulative Absorbed Dose, Bone Marrow: 0.07 Gy
  Cumulative Absorbed Dose, Kidney: 6.25 Gy
  Cumulative Absorbed Dose, Salivary Glands: 2.85 Gy
  Cumulative Absorbed Dose, Bone Marrow, % of dose limit: 3.5%
  Cumulative Absorbed Dose, Salivary Glands, % of dose limit: 12%
Patient 5, 3 cycles, 22.29 GBq cumulative, limit 23 Gy
  Cumulative Absorbed Dose, Kidney, % of dose limit: 27%
[3]
  Cumulative Absorbed Dose, Bone Marrow: 0.42 Gy
  Cumulative Absorbed Dose, Kidney: 7.31 Gy
  Cumulative Absorbed Dose, Salivary Glands: 2.87 Gy
  Cumulative Absorbed Dose, Bone Marrow, % of dose limit: 21%
  Cumulative Absorbed Dose, Salivary Glands, % of dose limit: 12%
Patient 6, 3 cycles, 22.59 GBq cumulative, limit 23 Gy
  Cumulative Absorbed Dose, Kidney, % of dose limit: 32%
[4]
  Cumulative Absorbed Dose, Bone Marrow: 0.05 Gy
  Cumulative Absorbed Dose, Kidney: 4.02 Gy
  Cumulative Absorbed Dose, Salivary Glands: 2.88 Gy
  Cumulative Absorbed Dose, Bone Marrow, % of dose limit: 2.5%
  Cumulative Absorbed Dose, Salivary Glands, % of dose limit: 12%
Patient 7, 3 cycles, 22.29 GBq cumulative, limit 23 Gy
  Cumulative Absorbed Dose, Kidney, % of dose limit: 17%
[5]
  Cumulative Absorbed Dose, Bone Marrow: 0.24 Gy
  Cumulative Absorbed Dose, Kidney: 5.18 Gy
  Cumulative Absorbed Dose, Salivary Glands: 1.17 Gy
  Cumulative Absorbed Dose, Bone Marrow, % of dose limit: 12%
  Cumulative Absorbed Dose, Salivary Glands, % of dose limit: 4.9%
Patient 8, 3 cycles, 22.86 GBq cumulative, limit 23 Gy
  Cumulative Absorbed Dose, Kidney, % of dose limit: 23%
[6]
  Cumulative Absorbed Dose, Bone Marrow: 0.05 Gy
  Cumulative Absorbed Dose, Kidney: 5.18 Gy
  Cumulative Absorbed Dose, Salivary Glands: 2.00 Gy
  Cumulative Absorbed Dose, Bone Marrow, % of dose limit: 2.5%
  Cumulative Absorbed Dose, Salivary Glands, % of dose limit: 8.3%
Patient 9, 3 cycles, 22.10 GBq cumulative, limit 23 Gy
  Cumulative Absorbed Dose, Kidney, % of dose limit: 23%
[7]
  Cumulative Absorbed Dose, Bone Marrow: 0.03 Gy
  Cumulative Absorbed Dose, Kidney: 4.29 Gy
  Cumulative Absorbed Dose, Salivary Glands: 0.82 Gy
  Cumulative Absorbed Dose, Bone Marrow, % of dose limit: 1.5%
  Cumulative Absorbed Dose, Salivary Glands, % of dose limit: 3.4%
Patient 10, 3 cycles, 23.30 GBq cumulative, limit 23 Gy
  Cumulative Absorbed Dose, Kidney, % of dose limit: 19%
[8]
  Cumulative Absorbed Dose, Bone Marrow: 0.23 Gy
  Cumulative Absorbed Dose, Kidney: 1.52 Gy
  Cumulative Absorbed Dose, Salivary Glands: 0.88 Gy
  Cumulative Absorbed Dose, Bone Marrow, % of dose limit: 11%
  Cumulative Absorbed Dose, Salivary Glands, % of dose limit: 3.7%
Patient 11, 1 cycle, 7.80 GBq cumulative, limit 23 Gy
  Cumulative Absorbed Dose, Kidney, % of dose limit: 6.6%
[9]
  Cumulative Absorbed Dose, Bone Marrow: 0.04 Gy
  Cumulative Absorbed Dose, Kidney: 1.71 Gy
  Cumulative Absorbed Dose, Salivary Glands: 0.79 Gy
  Cumulative Absorbed Dose, Bone Marrow, % of dose limit: 2.0%
  Cumulative Absorbed Dose, Salivary Glands, % of dose limit: 3.3%
Patient 12, 1 cycle, 7.46 GBq cumulative, limit 23 Gy
  Cumulative Absorbed Dose, Kidney, % of dose limit: 7.4%
[10]
  Cumulative Absorbed Dose, Bone Marrow: 0.05 Gy
  Cumulative Absorbed Dose, Kidney: 4.63 Gy
  Cumulative Absorbed Dose, Salivary Glands: 3.40 Gy
  Cumulative Absorbed Dose, Bone Marrow, % of dose limit: 2.5%
  Cumulative Absorbed Dose, Salivary Glands, % of dose limit: 14%
Patient 13, 3 cycles, 22.23 GBq cumulative, limit 23 Gy
  Cumulative Absorbed Dose, Kidney, % of dose limit: 20%
All patients, both dosing cohorts
  Cumulative absorbed doses versus historical EBRT organ dose limits: below the historical external beam radiation therapy (EBRT) organ dose limits
At 7.4 GBq per cycle, range across the 13 patients
  Equivalent number of treatment cycles to reach the EBRT kidney dose limit of 23 Gy: 6–17 cycles
Limit 23 Gy, maximum of three cycles
  Cumulative absorbed dose to the kidney as % of the EBRT dose limit, highest reached: ≤ 36%
